Test results taken from patent US20260102388A1 (priority 2022, published 2026).

Tested on: SD rats
Assay: Effect of compound implant of naltrexone on spontaneous activity
Settings: implants 3 tablets/animal (diazepam 2 mg/kg), 60 min recording, X ± SEM
Method: Test animals: SPF-grade Sprague-Dawley (SD) rats, weighing 200±20 g, and they were fed adaptively.
Animal grouping and administration: Animals were divided into 8 groups with 12 animals in each group, half male and half female. In the experiment, animals were divided into positive control group (diazepam group, with a dose of 2 mg/kg), negative control group (normal saline), Example 1 group, Example 2 group, Comparative Example 2 group, Comparative Example 4 group, Comparative Example 5 group (dose: 3 tablets/animal), and fasten for 12 h before administration. The dosage volume for rats was 10 mL/kg.
The experiment was divided into three periods: adaptation period, pre-testing period and post-administration testing period. […]
Open field adaptation: After environmental adaptation, single rat/mouse was put into a spontaneous activity box for 60 min to adapt to the experiment box, and the spontaneous activity within 60 min was recorded, the general adaptation was 2-3 days to reduce the impact of environmental stimulation.
Baseline test: Single rat/mouse was put into a spontaneous activity box for 40 min to adapt to the experimental box, and spontaneous activity within 40 min was recorded, then divided equally to groups according to basic spontaneous activity. […]
Data were expressed as Mean±SEM. […]

CN1C(=O)CN=C(c2ccccc2)c2cc(Cl)ccc21 [Positive control group, diazepam]
total distance of activity: 9698.94 ± 902.16 mm
